Measurements as given in ChEMBL document CHEMBL1138951 (J Med Chem, 2006).

Legend:
Type in all cases: functional, organism-based
Plasmodium falciparum [1] = assay: Antimalarial activity against Plasmodium falciparum W2
Plasmodium falciparum [2] = assay: Antimalarial activity against Plasmodium falciparum HB3
Plasmodium falciparum [3] = assay: Antimalarial activity against Plasmodium falciparum Dd2

IC90 (Plasmodium falciparum [1]): 802 nM
IC90 (Plasmodium falciparum [2]): 45.7 nM
IC90 (Plasmodium falciparum [3]): 167 nM
SMILES: CCN(CC)CCCC(C)Nc1ccnc2cc(Cl)ccc12 (stereo not drawn) [CHLOROQUINE]
